Publication PMC7758046, “Novel piperazine–chalcone hybrids and related pyrazoline analogues targeting VEGFR-2 kinase; design, synthesis, molecular docking studies, and anticancer evaluation” (Journal of Enzyme Inhibition and Medicinal Chemistry, 2020)

Tests used:
Assay in all cases: NCI-60 single-dose anticancer screen
Assay type in all cases: cell-based, human
M14 (Melanoma) = details: 10 µM single dose
Experimental: (§1) Six compounds were selected by the NCI, according to NCI’s DTP selection guidelines, for evaluation of their anticancer activity at a single-dose of 10 µM against 60 human tumours cell lines.
(§2) In vitro cytotoxicity was performed in NCI according to reported method.

SNB-75 (CNS cancer) = details: 10 µM single dose
Experimental: as §1, §2

UACC-257 (Melanoma) = details: 10 µM single dose
Experimental: as §1, §2

OVCAR-8 (Ovarian cancer) = details: 10 µM single dose
Experimental: as §1, §2

SK-MEL-5 (Melanoma) = details: 10 µM single dose
Experimental: as §1, §2

BT-549 (Breast cancer) = details: 10 µM single dose
Experimental: as §1, §2

SF-295 (CNS cancer) = details: 10 µM single dose
Experimental: as §1, §2

KM12 (Colon cancer) = details: 10 µM single dose
Experimental: as §1, §2

K-562 (Leukaemia) = details: for cell growth promotion: 10 µM single dose; for inhibition at 10 µM: Homo sapiens, K562, 10 µM single dose, read-out: cell growth inhibition
Experimental: as §1, §2

OVCAR-4 (Ovarian cancer) = details: 10 µM single dose
Experimental: as §1, §2

A498 (Renal cancer) = details: 10 µM single dose
Experimental: as §1, §2

[1] = tested on: NCI/ADR-RES (Ovarian cancer); details: 10 µM single dose
Experimental: as §1, §2

MALME-3M (Melanoma) = details: 10 µM single dose
Experimental: as §1, §2

UACC-62 (Melanoma) = details: 10 µM single dose
Experimental: as §1, §2

RPMI-8226 (Leukaemia) = details: 10 µM single dose
Experimental: as §1, §2

SF-539 (CNS cancer) = details: 10 µM single dose
Experimental: as §1, §2

MDA-MB-435 (Melanoma) = details: 10 µM single dose
Experimental: as §1, §2

[2] = tested on: MDA-MB-468 (Breast cancer); details: 10 µM single dose
Experimental: as §1, §2

CCRF-CEM (Leukaemia) = details: 10 µM single dose
Experimental: as §1, §2

OVCAR-3 (Ovarian cancer) = details: 10 µM single dose
Experimental: as §1, §2

HL-60(TB) (Leukaemia) = details: 10 µM single dose
Experimental: as §1, §2

SF-268 (CNS cancer) = details: 10 µM single dose
Experimental: as §1, §2

U251 (CNS cancer) = details: 10 µM single dose
Experimental: as §1, §2

HS 578T (Breast cancer) = details: 10 µM single dose
Experimental: as §1, §2

SNB-19 (CNS cancer) = details: 10 µM single dose
Experimental: as §1, §2

TK-10 (Renal cancer) = details: 10 µM single dose
Experimental: as §1, §2

UO-31 (Renal cancer) = details: 10 µM single dose
Experimental: as §1, §2

SK-MEL-2 (Melanoma) = details: 10 µM single dose
Experimental: as §1, §2

SW-620 (Colon cancer) = details: 10 µM single dose
Experimental: as §1, §2

OVCAR-5 (Ovarian cancer) = details: 10 µM single dose
Experimental: as §1, §2

IGROV1 (Ovarian cancer) = details: 10 µM single dose
Experimental: as §1, §2

[3] = tested on: NCI-H460 (Non-small cell lung cancer); details: 10 µM single dose
Experimental: as §1, §2

SR (Leukaemia) = details: 10 µM single dose
Experimental: as §1, §2

SK-MEL-28 (Melanoma) = details: 10 µM single dose
Experimental: as §1, §2

[4] = tested on: NCI-H23 (Non-small cell lung cancer); details: 10 µM single dose
Experimental: as §1, §2

SN12C (Renal cancer) = details: 10 µM single dose
Experimental: as §1, §2

HCT-15 (Colon cancer) = details: 10 µM single dose
Experimental: as §1, §2

COLO 205 (Colon cancer) = details: 10 µM single dose
Experimental: as §1, §2

[5] = tested on: A549/ATCC (Non-small cell lung cancer); details: 10 µM single dose
Experimental: as §1, §2

[6] = tested on: HOP-92 (Non-small cell lung cancer); details: 10 µM single dose; for inhibition at 10 µM: Homo sapiens, read-out: cell growth inhibition
Experimental: as §1, §2

HCC-2998 (Colon cancer) = details: 10 µM single dose
Experimental: as §1, §2

CAKI-1 (Renal cancer) = details: 10 µM single dose
Experimental: as §1, §2

[7] = tested on: EKVX (Non-small cell lung cancer); details: 10 µM single dose
Experimental: as §1, §2

[8] = tested on: NCI-H522 (Non-small cell lung cancer); details: 10 µM single dose
Experimental: as §1, §2

ACHN (Renal cancer) = details: 10 µM single dose
Experimental: as §1, §2

[9] = tested on: NCI-H322M (Non-small cell lung cancer); details: 10 µM single dose
Experimental: as §1, §2

HT29 (Colon cancer) = details: for cell growth promotion: 10 µM single dose; for inhibition at 10 µM: Homo sapiens, HT-29, 10 µM single dose, read-out: cell growth inhibition
Experimental: as §1, §2

[10] = Homo sapiens, read-out: cell growth inhibition

N#Cc1ccccc1C1CC(c2ccc(N3CCNCC3)cc2)=NN1 (centres unmarked) [VIa, 2-(3-(4-(Piperazin-1-yl)phenyl)-4,5-dihydro-1H-pyrazol-5-yl)benzonitrile]
cell growth promotion (M14 (Melanoma)): 104.47% | cell growth promotion (SNB-75 (CNS cancer)): 90.58% | cell growth promotion (UACC-257 (Melanoma)): 85.21% | cell growth promotion (OVCAR-8 (Ovarian cancer)): 90.36% | cell growth promotion (SK-MEL-5 (Melanoma)): 93.27% | cell growth promotion (BT-549 (Breast cancer)): 96.87% | cell growth promotion (SF-295 (CNS cancer)): 103.66% | cell growth promotion (KM12 (Colon cancer)): 97.48% | cell growth promotion (K-562 (Leukaemia)): 78.12% | inhibition at 10 µM (K-562 (Leukaemia)): 21.9% | cell growth promotion (OVCAR-4 (Ovarian cancer)): 101.39% | cell growth promotion (A498 (Renal cancer)): 93.08% | cell growth promotion [1]: 102.72% | cell growth promotion (MALME-3M (Melanoma)): 106.87% | cell growth promotion (UACC-62 (Melanoma)): 88.47% | cell growth promotion (RPMI-8226 (Leukaemia)): 88.98% | cell growth promotion (SF-539 (CNS cancer)): 105.04% | cell growth promotion (MDA-MB-435 (Melanoma)): 102.57% | cell growth promotion [2]: 101.01% | cell growth promotion (CCRF-CEM (Leukaemia)): 71.21% | inhibition at 10 µM (CCRF-CEM (Leukaemia); [10]): 28.8% | cell growth promotion (OVCAR-3 (Ovarian cancer)): 101.64% | cell growth promotion (HL-60(TB) (Leukaemia)): 81.63% | cell growth promotion (SF-268 (CNS cancer)): 100.24% | cell growth promotion (U251 (CNS cancer)): 94.54% | cell growth promotion (HS 578T (Breast cancer)): 91.67% | cell growth promotion (SNB-19 (CNS cancer)): 95.34% | cell growth promotion (TK-10 (Renal cancer)): 130.17% | cell growth promotion (UO-31 (Renal cancer)): 86.28% | cell growth promotion (SK-MEL-2 (Melanoma)): 94.51% | cell growth promotion (SW-620 (Colon cancer)): 94.11% | cell growth promotion (OVCAR-5 (Ovarian cancer)): 113.63% | cell growth promotion (IGROV1 (Ovarian cancer)): 93.22% | cell growth promotion [3]: 101.50% | cell growth promotion (SR (Leukaemia)): 94.43% | inhibition at 10 µM (SR (Leukaemia); [10]): 5.57% | cell growth promotion (SK-MEL-28 (Melanoma)): 114.17% | cell growth promotion [4]: 91.73% | cell growth promotion (SN12C (Renal cancer)): 98.09% | cell growth promotion (HCT-15 (Colon cancer)): 112.02% | cell growth promotion (COLO 205 (Colon cancer)): 113.04% | cell growth promotion [5]: 78.06% | inhibition at 10 µM [5, 10]: 21.9% | cell growth promotion [6]: 83.18% | inhibition at 10 µM [6]: 16.8% | cell growth promotion (HCC-2998 (Colon cancer)): 96.75% | cell growth promotion (CAKI-1 (Renal cancer)): 83.12% | cell growth promotion [7]: 101.50% | cell growth promotion [8]: 69.51% | inhibition at 10 µM [8, 10]: 30.5% | cell growth promotion (ACHN (Renal cancer)): 104.24% | cell growth promotion [9]: 98.35% | cell growth promotion (HT29 (Colon cancer)): 87.83% | inhibition at 10 µM (HT29 (Colon cancer)): 12.2%

COc1cc(C2CC(c3ccc(N4CCNCC4)cc3)=NN2)ccc1F (centres unmarked) [VIb, 1-(4-(5-(4-Fluoro-3-methoxyphenyl)-4,5-dihydro-1H-pyrazol-3-yl)phenyl) piperazine]
cell growth promotion (M14 (Melanoma)): 84.68% | cell growth promotion (SNB-75 (CNS cancer)): 88.85% | cell growth promotion (UACC-257 (Melanoma)): 80.93% | cell growth promotion (OVCAR-8 (Ovarian cancer)): 84.09% | cell growth promotion (SK-MEL-5 (Melanoma)): 80.94% | cell growth promotion (BT-549 (Breast cancer)): 70.80% | cell growth promotion (SF-295 (CNS cancer)): 97.70% | cell growth promotion (KM12 (Colon cancer)): 93.81% | cell growth promotion (K-562 (Leukaemia)): 58.92% | inhibition at 10 µM (K-562 (Leukaemia)): 41.1% | cell growth promotion (OVCAR-4 (Ovarian cancer)): 91.49% | cell growth promotion (A498 (Renal cancer)): 90.59% | cell growth promotion [1]: 104.69% | cell growth promotion (MALME-3M (Melanoma)): 102.13% | cell growth promotion (UACC-62 (Melanoma)): 86.00% | cell growth promotion (RPMI-8226 (Leukaemia)): 72.01% | cell growth promotion (SF-539 (CNS cancer)): 84.21% | cell growth promotion (MDA-MB-435 (Melanoma)): 101.87% | cell growth promotion [2]: 96.57% | cell growth promotion (CCRF-CEM (Leukaemia)): 69.44% | cell growth promotion (OVCAR-3 (Ovarian cancer)): 91.15% | cell growth promotion (HL-60(TB) (Leukaemia)): 76.95% | cell growth promotion (SF-268 (CNS cancer)): 93.72% | cell growth promotion (U251 (CNS cancer)): 78.59% | cell growth promotion (HS 578T (Breast cancer)): 84.17% | cell growth promotion (SNB-19 (CNS cancer)): 95.65% | cell growth promotion (TK-10 (Renal cancer)): 113.60% | cell growth promotion (UO-31 (Renal cancer)): 76.56% | cell growth promotion (SK-MEL-2 (Melanoma)): 87.70% | cell growth promotion (SW-620 (Colon cancer)): 91.67% | cell growth promotion (OVCAR-5 (Ovarian cancer)): 101.51% | cell growth promotion (IGROV1 (Ovarian cancer)): 82.04% | cell growth promotion [3]: 95.16% | cell growth promotion (SR (Leukaemia)): 67.42% | cell growth promotion (SK-MEL-28 (Melanoma)): 109.51% | cell growth promotion [4]: 75.49% | cell growth promotion (SN12C (Renal cancer)): 83.08% | cell growth promotion (HCT-15 (Colon cancer)): 85.57% | cell growth promotion (COLO 205 (Colon cancer)): 93.87% | cell growth promotion [5]: 68.21% | cell growth promotion [6]: 57.13% | inhibition at 10 µM [6]: 42.9% | cell growth promotion (HCC-2998 (Colon cancer)): 104.57% | cell growth promotion (CAKI-1 (Renal cancer)): 86.62% | cell growth promotion [7]: 95.41% | cell growth promotion [8]: 66.27% | cell growth promotion (ACHN (Renal cancer)): 101.47% | cell growth promotion [9]: 89.15% | cell growth promotion (HT29 (Colon cancer)): 20.27% | inhibition at 10 µM (HT29 (Colon cancer)): 79.7%
